# Literature values as cited in patent publication US9346789B2, “Combinations of AKT inhibitor compounds and abiraterone, and methods of use” (Genentech, Inc., priority 2011, dated 2016).
# Target: T1, topoisomerase I (Homo sapiens, UniProt P11387)
# T1 sequence (P11387 1-765): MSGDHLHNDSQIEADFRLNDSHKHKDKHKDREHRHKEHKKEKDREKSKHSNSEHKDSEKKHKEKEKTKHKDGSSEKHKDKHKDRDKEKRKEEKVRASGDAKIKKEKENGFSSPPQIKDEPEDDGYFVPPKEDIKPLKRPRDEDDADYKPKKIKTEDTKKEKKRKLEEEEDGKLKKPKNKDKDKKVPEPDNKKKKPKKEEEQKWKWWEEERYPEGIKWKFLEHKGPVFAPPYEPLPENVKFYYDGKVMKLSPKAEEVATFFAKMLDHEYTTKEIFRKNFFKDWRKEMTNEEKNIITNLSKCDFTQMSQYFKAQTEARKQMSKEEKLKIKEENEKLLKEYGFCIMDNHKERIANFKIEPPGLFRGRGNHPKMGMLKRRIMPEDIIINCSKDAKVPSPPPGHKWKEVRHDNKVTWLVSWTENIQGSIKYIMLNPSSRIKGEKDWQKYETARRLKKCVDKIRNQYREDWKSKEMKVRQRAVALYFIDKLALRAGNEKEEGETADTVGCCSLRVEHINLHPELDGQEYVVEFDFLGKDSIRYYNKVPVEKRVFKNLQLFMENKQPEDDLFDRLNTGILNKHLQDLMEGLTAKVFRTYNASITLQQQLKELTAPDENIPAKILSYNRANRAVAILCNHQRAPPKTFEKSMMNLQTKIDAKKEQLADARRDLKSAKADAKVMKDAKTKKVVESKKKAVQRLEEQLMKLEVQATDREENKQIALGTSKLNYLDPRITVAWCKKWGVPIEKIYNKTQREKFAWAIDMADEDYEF
# Details: active metabolite versus irinotecan itself
compound,measurement,value
"CCc1c2c(nc3ccc(O)cc13)-c1cc3c(c(=O)n1C2)COC(=O)[C@]3(O)CC [SN-38, 7-ethyl-10-hydroxy-camptothecin]",activity relative to irinotecan,200 times
